According to patent US6809193B2, “Antisense oligonucleotide compositions and methods for the modulation of JNK proteins” (ISIS Pharmaceuticals, Inc., priority 1997, dated 2004):

How the values were obtained:
[1] = system: MDA-MB-231 tumors; test: MDA-MB-231 human tumor xenograft in nude mice; format: in vivo; settings: 25 mg/kg intravenous once daily; for Mean Tumor Volume (cm^3): nude mice
From the text: Approximately 5×10^6 breast adenocarcinoma cells (cell line MDA-MB-231; American Type Culture Collection, 10801 University Boulevard, Manassas, Va. 20110-2209, No. ATCC HTB-26) were implanted subcutaneously in the right inner thigh of nude mice (n=6 for each of three sets of mice). Oligonucleotides ISIS 15346 (JNK1, SEQ ID NO:16) and 15353 (JNK2, SEQ ID NO:31) were suspended in saline and administered once daily to two sets of mice on the first day the tumor volume was about 100 mm^3. A saline-only (0.9% NaCl) solution was given to a third set of animals as a control. Oligonucleotides were given by intravenous injection at a dosage of 25 mg/kg. Tumor size was measured and tumor volume was calculated on days 12, 19, 26 and 33 following tumor cell inoculation.

[2] = system: JNK1 protein; test: Western assay, JNK1 protein levels in A549 cells; format: cell-based, human; settings: t = 72 h
Procedure: In order to evaluate the activity of potential JNK-modulating oligonucleotides, human lung carcinoma cell line A549 (American Type Culture Collection, 10801 University Boulevard, Manassas, Va. 20110-2209, No. ATCC CCL-185) cells or other cell lines as indicated in the Examples, were grown and treated with oligonucleotides or control solutions as detailed below. After harvesting, cellular extracts were prepared and examined for specific JNK mRNA levels or JNK protein levels (i.e., Northern or Western assays, respectively). In all cases, “% expression” refers to the amount of JNK-specific signal in an oligonucleotide-treated cell relative to an untreated cell (or a cell treated with a control solution that lacks oligonucleotide), and “% inhibition” is calculated as
A549 cells were grown and treated with oligonucleotides as described above. […] The amount of each JNK protein was determined by using a primary antibody that specifically recognizes the appropriate JNK protein. […]
In order to assess the effect of oligonucleotides targeted to JNK1 mRNAs on JNK1 protein levels, Western assays were performed essentially as described above in Example 2, with the following exception(s) and/or modification(s). […] The samples from t=48 h and t=72 h were analyzed using the Northern and Western assays described above.

[3] = system: JNK1 mRNA; test: Northern assay, JNK1 mRNA expression in A549 cells; format: cell-based, human; settings: for inhibition of JNK1 mRNA expression: 400 nM, Northern assay, Table 5; for RNA % Inhibition: JNK1 mRNA
[4] = system: JNK activity; test: TNFa-induced JNK activity in HUVEC (GST-c-Jun phosphorylation); format: cell-based, human; settings: 100 nM, 5 ng/ml TNFa 15 minutes, compared to a control oligonucleotide

Substance	tumor growth compared to the saline control ([1]; MDA-MB-231 tumors)	Protein % Inhibition [2] [%]	inhibition of JNK1 mRNA expression [3]	RNA % Inhibition ([3]; t = 48 h, 300 nM for initial 20 hours then 200 nM for 4 hours) [%]	RNA % Inhibition ([3]; t = 72 h) [%]	Mean Tumor Volume (cm^3) ([1]; Day 12 following tumor cell inoculation)	Mean Tumor Volume (cm^3) ([1]; Day 19)	Mean Tumor Volume (cm^3) ([1]; Day 26)	Mean Tumor Volume (cm^3) ([1]; Day 33)	inhibition of TNFa-induced JNK activity [4]
15346 (antisense CTCTCTGTAGGCCCGCTTGG; gapmer, 2'-MOE wings, phosphorothioate, chemistry not fully specified) [compound 15346]	inhibited tumor growth compared to the saline control	74.3	at least 88%	–	–	–	–	–	–	–
15347 (antisense CTCTCTGTAGGCCCGCTTGG; gapmer, 2'-MOE P=O wings, P=S deoxy core, chemistry not fully specified) [compound 15347]	–	71.6	at least 88%	> 70	> 70	–	–	–	–	–
C^sT^sC^sT^sC^sT^sG^sT^sA^sG^sG^sC^sC^sC^sG^sC^sT^sT^sG^sG (antisense CTCTCTGTAGGCCCGCTTGG; all phosphorothioate, sugars by position and methylation of C not given here) [ISIS 15346, JNK1 gapmer: P=S, 2′-MOE wings; P=S, 2′-deoxy core]	–	–	–	–	–	0.122	0.255	0.400	0.638	approximately 70%
